Laboratory results reported in patent US10703757B2, “Compounds and methods for CDK8 modulation and indications therefor” (Plexxikon Inc., priority 2016, dated 2020).
pIC50: −log10 of the molar value.

Experiments:
[1] = tested on: CDK8 (TCF/LEF luciferase reporter in HCT116 cells); experiment: Cell based TCF/LEF reporter assay (HCT116+TCF/LEF luciferase); details: Homo sapiens, HCT-116, 24 h
Procedure, shortened: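 HCT116 cells stably carrying a TCF/LEF-luciferase reporter (endogenous mutant β-catenin), seeded overnight, then exposed to serial compound dilutions for 24 h at 37 °C. Luminescence normalized to CellTiter-Fluor viability signal. % inhibition relative to DMSO and 10 uM CCT251545 controls, with IC50 from nonlinear regression.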

[2] = tested on: CDK8 (phosphorylation of STAT1 at serine 727 in A549 cells); experiment: Cell based Phospho-STAT1 assay (IFNγ-stimulated A549 cells, AlphaLISA); details: Homo sapiens, A549, A549 cells, phospho-STAT1 after IFNγ stimulation
Procedure, shortened: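 A549 cells given serial compound dilutions for 1 h at 37 °C, then stimulated with IFNγ at 10 ng/mL final for 30 min. Lysate STAT1 Ser727 phosphorylation measured by AlphaLISA; % inhibition vs stimulated/unstimulated DMSO controls, IC50 by nonlinear regression.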

Compound	pIC50 [1]	pIC50 [2]
N#CC1CC=C(c2c(-c3ccc4[nH]c(=O)[nH]c4c3)cnc3[nH]ccc23)CC1 (centres unmarked) [Compound P-0206, 4-(5-(2-oxo-2,3-dihydro-1H-benzo[d]imidazol-5-yl)-1H-pyrrolo[2,3-b]pyridin-4-yl)cyclohex-3-ene-1-carbonitrile]	7.00 to 10.00	7.00 to 10.00
N#CC1CCN(c2c(-c3ccc(-n4cccn4)cc3)cnc3[nH]ccc23)CC1 [Compound P-0219, 1-(5-(4-(1H-pyrazol-1-yl)phenyl)-1H-pyrrolo[2,3-b]pyridin-4-yl)piperidine-4-carbonitrile]	7.00 to 10.00	7.00 to 10.00
CC(C)(C#Cc1cccn2ncc(-c3ccc(-c4cnn(CC(F)(F)F)c4)cc3)c12)C(N)=O [Compound P-0468, 2,2-dimethyl-4-(3-(4-(1-(2,2,2-trifluoroethyl)-1H-pyrazol-4-yl)phenyl)pyrazolo[1,5-a]pyridin-4-yl)but-3-ynamide]	7.00 to 10.00	7.00 to 10.00
CC(C)(C#Cc1cccn2ncc(-c3ccc(-c4cnn(CCCC#N)c4)cc3)c12)C(N)=O [Compound P-0461, 4-(3-(4-(1-(3-cyanopropyl)-1H-pyrazol-4-yl)phenyl)pyrazolo[1,5-a]pyridin-4-yl)-2,2-dimethylbut-3-ynamide]	7.00 to 10.00	7.00 to 10.00
CC(C)(O)Cn1cc2cc(-c3cnc4[nH]ccc4c3C3=CCC(C#N)CC3)ccc2n1 (centres unmarked) [Compound P-0112, 4-(5-(2-(2-hydroxy-2-methylpropyl)-2H-indazol-5-yl)-1H-pyrrolo[2,3-b]pyridin-4-yl)cyclohex-3-ene-1-carbonitrile]	6.00 to 7.00	7.00 to 10.00
N#CC1CC=C(c2cccn3ncc(-c4ccc(-n5ccnn5)cc4)c23)CC1 (centres unmarked) [Compound P-0224, 4-(3-(4-(1H-1,2,3-triazol-1-yl)phenyl)pyrazolo[1,5-a]pyridin-4-yl)cyclohex-3-ene-1-carbonitrile]	7.00 to 10.00	7.00 to 10.00
N#CC1CC=C(c2cccn3ncc(-c4ccc(OCC(O)CN5CCCCC5)cc4)c23)CC1 (centres unmarked) [Compound P-0128, 4-(3-(4-(2-hydroxy-3-(piperidin-1-yl)propoxy)phenyl)pyrazolo[1,5-a]pyridin-4-yl)cyclohex-3-ene-1-carbonitrile]	7.00 to 10.00	7.00 to 10.00

Other lines, results leading:

pIC50 [1]	pIC50 [2]	Compound
6.00 to 7.00	7.00 to 10.00	CC(C)(O)Cn1cc2cc(-c3cnn4ccnc(C5=CCC(C#N)CC5)c34)ccc2n1 (centres unmarked) [Compound P-0106, 4-(3-(2-(2-hydroxy-2-methylpropyl)-2H-indazol-5-yl)pyrazolo[1,5-a]pyrazin-4-yl)cyclohex-3-ene-1-carbonitrile]
5.00 to 6.00	5.00 to 6.00	CC(C)(C)COc1ccc(-c2cnn3cccc(N4CCC(C#N)CC4)c23)cc1 [Compound P-0266, 1-(3-(4-(neopentyloxy)phenyl)pyrazolo[1,5-a]pyridin-4-yl)piperidine-4-carbonitrile]
7.00 to 10.00	7.00 to 10.00	COc1ccc2cc(-c3cnn4ccnc(C#CC(C)(C)C(N)=O)c34)ccc2n1 [Compound P-0117, 4-[3-(2-methoxy-6-quinolyl)pyrazolo[1,5-a]pyrazin-4-yl]-2,2-dimethyl-but-3-ynamide]
6.00 to 7.00	7.00 to 10.00	Cn1cc(-c2ccc(-c3cnn4cccc(C#CCOCCO)c34)cc2)cn1 [Compound P-0245, 2-((3-(3-(4-(1-methyl-1H-pyrazol-4-yl)phenyl)pyrazolo[1,5-a]pyridin-4-yl)prop-2-yn-1-yl)oxy)ethan-1-ol]
7.00 to 10.00	7.00 to 10.00	N#CC1CC=C(c2nccn3ncc(-c4ccc(-c5cnn(CCN6CCOCC6)c5)cc4)c23)CC1 (centres unmarked) [Compound P-0051, 4-(3-(4-(1-(2-morpholinoethyl)-1H-pyrazol-4-yl)phenyl)pyrazolo[1,5-a]pyrazin-4-yl)cyclohex-3-ene-1-carbonitrile]
7.00 to 10.00	7.00 to 10.00	Cn1ncc2cc(-c3cnn4cccc(N5CCC6(CCNC6=O)CC5)c34)ccc21 [Compound P-0169, 8-(3-(1-methyl-1H-indazol-5-yl)pyrazolo[1,5-a]pyridin-4-yl)-2,8-diazaspiro[4.5]decan-1-one]
